Measured values as given in PMC4126848 (Epilepsia, 2014).
Values joined by “and” are separate entries in the source; they are usually repeats but may differ in a detail not shown here. Equal values may be shown once. Read-outs that look alike come from different tables or passages of the source.

How the values were obtained:
[1] = tested on: hippocampal pyramidal neurons isolated from Scn2a^Q54 mice; format: cell-based, mouse; details: 1 µM
[2] = tested on: hippocampal pyramidal neurons isolated from Scn2a^Q54 mice; format: cell-based, mouse; details: 1 µM; membrane potential clamped to −80 mV
Scn2a^Q54 mice [3] = assay: Anticonvulsant activity: behavioral seizure frequency in Scn2a^Q54 mice; format: in vivo, mouse; details: for reduction in seizure frequency: Scn2a^Q54 mice
C57BL/6J male mice = assay: Maximal electroshock-induced seizures; format: in vivo, mouse; details: oral gavage two hours prior to testing; probit analysis
Scn2a^Q54 mice [4] = assay: Survival analysis of Scn2a^Q54 mice; format: in vivo, mouse; details: GS967 chow 1.5 mg/kg/d from postnatal day 21; control 20%
Scn2a^Q54 mice [5] = assay: Cresyl Violet staining for hilar neuron loss in the dentate gyrus; format: in vivo, mouse; details: GS967 1.5 mg/kg/d from P21-P60; female mice
Scn2a^Q54 mice [6] = assay: Tolerability observations in mice; format: in vivo, mouse; details: phenytoin 30 mg/kg i.p.; GS967 in chow
[7] = tested on: cardiac ion channels and several other molecular targets (more than 600 studied targets); details: 1 µM; cited from earlier work
[8] = Plasma and brain concentrations and pharmacokinetics in mice; details: for concentration at 30 min: male, Scn2a^Q54, mouse, intraperitoneal, 40 mg/kg
[9] = mouse, in vivo

| Structure (SMILES) | persistent current as % of peak current amplitude ([1]; control 1.2 ± 0.4%) | peak current density ([1]; not significantly different from control) | reduction of spontaneous action potential firing frequency [2] | reduction in seizure frequency (Scn2a^Q54 mice [3]; GS967 0.375 mg/kg/d orally in chow) | reduction in seizure frequency (Scn2a^Q54 mice [3]; GS967 1.5 mg/kg/d orally in chow, two days of treatment) | % Change in Seizure Frequency (Scn2a^Q54 mice [3]; GS967 1.5 mg/kg/day orally in chow, male Scn2a^Q54 mice) | ED50 for protection against MES-induced tonic hindlimb extension (C57BL/6J male mice) | mice alive at 12 weeks (Scn2a^Q54 mice [4]) | hilar neuron loss (Cresyl Violet, qualitative) (Scn2a^Q54 mice [5]) | sedation (Scn2a^Q54 mice [6]) | cross reactivity with cardiac ion channels and other molecular targets [7] | [Plasma] ([8]; GS967 1.5 mg/kg/day orally in chow, immediately after post-treatment period) | brain penetration ([8]; mice) | rate of elimination ([8]; mouse, in vivo) | reduction in seizure frequency (Scn2a^Q54 mice [3]; ranolazine 40 mg/kg i.p.) | brain penetration [9] | concentration at 30 min ([8]; plasma) | concentration at 30 min ([8]; whole brain) | half-life ([8]; mouse, plasma) |
| --- | --- | --- | --- | --- | --- | --- | --- | --- | --- | --- | --- | --- | --- | --- | --- | --- | --- | --- | --- |
| FC(F)(F)Oc1ccc(-c2ccc3nnc(C(F)(F)F)n3c2)cc1 [GS967] | 0.1 ± 0.1% | 172.3 ± 46.2 pA/pF | 98.8 ± 0.1% | 50% | greater than 90% | −92 ± 4% | 0.1 mg/kg | 90% | no overt hilar neuron loss | no sedation was observed | no cross reactivity | 0.6 ± 0.1 µM | effectively cross the blood-brain barrier | slower rate of elimination than ranolazine |  |  |  |  |  |
| O=C1NC(=O)C(c2ccccc2)(c2ccccc2)N1 [Phenytoin, reference compound] |  |  | 36.7 ± 10.1% |  |  |  |  |  |  | exhibited sedation characterized by lack of ambulation |  |  |  |  |  |  |  |  |  |
| COc1ccccc1OCC(O)CN1CCN(CC(=O)Nc2c(C)cccc2C)CC1 (stereo not drawn) [Ranolazine, reference compound] |  |  |  |  |  |  |  |  |  |  |  |  |  |  | ~ 50% and 48% | low brain penetration | 19.3 ± 0.8 µM | 4.9 ± 0.1 µM | ~15 min |
